The test system of one data set is hiPS-CMs. The data set can be described thus: Perforated patch-clamp, spontaneous action potentials (APD90) of hiPS-CMs. The class given is cell-based, human. The settings on record: 10 µM remdesivir, 72 h.
Data set [1] concerns the target T1, UTS2R (β-arrestin 2 recruitment) (Homo sapiens, UniProt Q9UKP6).
T1 construct: expressed in transfected cells; host or cells: HEK293A
The experiment in a line: NanoBiT β-arrestin 2 recruitment assay for UTS2R. It is filed as cell-based. The settings on record: β-arrestin 2, Supplementary Fig. 1b.

The test system of a further data set is UTS2R N297A. The experiment in a line: TGFα-shedding assay on UTS2R mutant N297A. The class given is cell-based, human. The settings on record: cutoff value set to −1, single replicates.
Data set [2] addresses T2, UTS2R (β-arrestin 1 recruitment) (Homo sapiens, UniProt Q9UKP6).
T2 construct: expressed in transfected cells; host or cells: HEK293A
The data set can be described thus: NanoBiT β-arrestin 1 recruitment assay for UTS2R. It is filed as cell-based. The settings on record: β-arrestin 1, Fig. 1c. A general note: Activated receptors often draw arrestin, which recruitment assays turn into a signal.

A further data set relates to UTS2R D130G. The experiment in a line: TGFα-shedding assay on UTS2R SNV mutant D130G. It is filed as cell-based, human. The settings on record: cutoff value set to −1, single replicates.
Data set [3] concerns mitochondrial respiratory complex proteins. The data set can be described thus: Western blot of mitochondrial respiratory complex proteins in UTS2R-transfected HEK293A cells. It is filed as cell-based, human. The settings on record: 10 μM remdesivir, 48 h.
Another data set has as its target T3, UTS2R D130N (Homo sapiens, UniProt Q9UKP6, D130N).
T3 construct: expressed in transfected cells; host or cells: HEK293A
The data set can be described thus: TGFα-shedding assay on UTS2R mutant D130N. It is filed as cell-based.

For data set [4] the following is noted: cited from earlier work.
The test system of data set [5] is ERK1/2 phosphorylation in HEK293 cells overexpressing UTS2R. The experiment in a line: Western blot of ERK1/2 phosphorylation in HEK293 cells overexpressing UTS2R. The settings on record: application for up to 72 h. It is filed as cell-based, human.
Data set [6] deals with neonatal rat cardiomyocytes (NRCMs). Conditions: for Contraction [a.u.]: 48 h.

The values below come from publication PMC10175918 (Communications Biology, 2023).

“And” between values parts separate entries of the source, which are not always exact repeats. Equal values may be shown once. Read-outs that look alike come from different tables or passages of the source. Bounds are passed on as bounds.

T3 sequence (Q9UKP6 whole entry D130N): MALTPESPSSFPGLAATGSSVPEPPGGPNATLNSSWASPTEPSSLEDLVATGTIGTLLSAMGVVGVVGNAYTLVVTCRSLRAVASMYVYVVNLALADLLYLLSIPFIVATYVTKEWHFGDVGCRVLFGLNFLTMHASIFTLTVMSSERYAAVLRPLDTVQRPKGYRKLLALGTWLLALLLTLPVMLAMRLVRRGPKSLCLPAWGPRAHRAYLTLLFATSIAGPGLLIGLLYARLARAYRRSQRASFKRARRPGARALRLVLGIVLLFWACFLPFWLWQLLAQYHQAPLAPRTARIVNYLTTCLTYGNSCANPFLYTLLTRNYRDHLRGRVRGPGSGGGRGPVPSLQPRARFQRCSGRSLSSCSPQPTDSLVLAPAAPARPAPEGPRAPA
T1 sequence (Q9UKP6 whole entry): as the sequence (Q9UKP6 whole entry D130N) above, with N130D counted along it
T2 sequence (Q9UKP6 whole entry): as the sequence (Q9UKP6 whole entry D130N) above, with N130D counted along it

In the case of `CCC(CC)COC(=O)[C@H](C)N[P@](=O)(OC[C@H]1O[C@@](C#N)(c2ccc3c(N)ncnn23)[C@H](O)[C@@H]1O)Oc1ccccc1` [remdesivir], the “APD90 (action potential duration at 90% repolarization)” value in the data set with hiPS-CMs is recorded as “significantly prolonged”. The β-arrestin recruitment response entry in data set [1] and in [2] was “failed to induce a β-arrestin recruitment response” each time. Further, the “⊿pEC50 compared to WT UTS2R” value was -1 and -0.7407 in the data set with UTS2R N297A; > 0.3 and 0.2569 and 0.39 and 0.2404 and 0.3246 with UTS2R D130G; 0.5051 and 0.5402 and 0.5471 and 0.5928 and 0.4845 at UTS2R D130N (D130N, cutoff value set to −1, single replicates). Besides, the “steady-state levels of mitochondrial respiratory complex proteins” value in data set [3] is listed as “did not affect”. For the same molecule, the “receptor activation of D130N mutant” value at UTS2R D130N (D130N mutation vs WT, TGFα-shedding) was “significantly upregulated”. Besides, the “patients showing arrhythmias (other than atrial fibrillation, supraventricular tachycardia, ventricular tachycardia, ventricular fibrillation)” value in data set [4] (ACTT-1 trial, patients receiving remdesivir) was 0.2 % of patients. Also, the “time to resolution of cardiac adverse effects after discontinuing remdesivir” value in data set [4] was 24 to 48 h. Further, in [5], the “phosphorylation of ERK1/2” value was “long-lasting and dose-dependent phosphorylation of ERK1/2”. Further, the “Contraction [a.u.]” value was 0.1429 a.u. and 0.1533 a.u. and 0.1024 a.u in data set [6] (Fig.4a, 1 µM remdesivir, pacing, replicates); 0.2641 a.u. and 0.2651 a.u. and 0.2715 a.u in [6] (Fig.4a, urantide (100 nM) + 1 µM remdesivir); 0.1019 a.u. and 0.1158 a.u. and 0.1194 a.u in data set [6] (Fig.4b, 1 µM remdesivir, pacing, replicates); 0.3302 a.u. and 0.3344 a.u. and 0.3245 a.u in data set [6] (Fig.4b, PTX (150 ng/mL) + 1 µM remdesivir); 0.108 a.u. and 0.1376 a.u. and 0.1361 a.u in data set [6] (Fig.4b, YM-254890 (1 μM) + 1 µM remdesivir). In addition, the “contractility of NRCMs” value in data set [6] (chronic remdesivir treatment, constant pacing) was “reduced contractility”.
